Reference: ChEMBL document CHEMBL3045426, “Synthesis, Antiviral and Antibacterial Activities of Isatin Mannich Bases” (Med Chem Res, 2005)
Converted amounts (≈) assume the structure as drawn.

What was measured:
Vibrio cholerae [1] = test: Antimicrobial activity against Vibrio cholerae 01 after 18 to 20 hr by agar dilution method; type: functional; conditions: 1
Priestia megaterium = test: Antimicrobial activity against Bacillus megaterium after 18 to 20 hr by agar dilution method; type: functional
Enterobacter = test: Antimicrobial activity against Enterobacter after 18 to 20 hr by agar dilution method; type: functional
Citrobacter freundii = test: Antimicrobial activity against Citrobacter freundii after 18 to 20 hr by agar dilution method; type: functional
Salmonella enteritidis = test: Antimicrobial activity against Salmonella enterica subsp. enterica serovar Enteritidis after 18 to 20 hr by agar dilution method; type: functional
Salmonella typhimurium = test: Antimicrobial activity against Salmonella enterica subsp. enterica serovar Typhimurium after 18 to 20 hr by agar dilution method; type: functional
Proteus mirabilis = test: Antimicrobial activity against Proteus mirabilis after 18 to 20 hr by agar dilution method; type: functional
Proteus vulgaris = test: Antimicrobial activity against Proteus vulgaris after 18 to 20 hr by agar dilution method; type: functional
Edwardsiella tarda = test: Antimicrobial activity against Edwardsiella tarda after 18 to 20 hr by agar dilution method; type: functional
Escherichia coli = test: Antimicrobial activity against Escherichia coli NCTC 10418 after 18 to 20 hr by agar dilution method; type: functional
Salmonella typhi = test: Antimicrobial activity against Salmonella enterica subsp. enterica serovar Typhi after 18 to 20 hr by agar dilution method; type: functional
Salmonella paratyphi = test: Antimicrobial activity against Salmonella enterica subsp. enterica serovar Paratyphi A after 18 to 20 hr by agar dilution method; type: functional
Vibrio parahaemolyticus = test: Antimicrobial activity against Vibrio parahaemolyticus after 18 to 20 hr by agar dilution method; type: functional
Vibrio cholerae [2] = test: Antimicrobial activity against Vibrio cholerae 0139 after 18 to 20 hr by agar dilution method; type: functional; conditions: 139
Vibrio fluvialis = test: Antimicrobial activity against Vibrio fluvialis after 18 to 20 hr by agar dilution method; type: functional
Vibrio mimicus = test: Antimicrobial activity against Vibrio mimicus after 18 to 20 hr by agar dilution method; type: functional
Pseudomonas aeruginosa = test: Antimicrobial activity against Pseudomonas aeruginosa after 18 to 20 hr by agar dilution method; type: functional
Staphylococcus aureus = test: Antimicrobial activity against Staphylococcus aureus after 18 to 20 hr by agar dilution method; type: functional
Morganella morganii = test: Antimicrobial activity against Morganella morganii after 18 to 20 hr by agar dilution method; type: functional
Shigella boydii = test: Antimicrobial activity against Shigella boydii after 18 to 20 hr by agar dilution method; type: functional
Plesiomonas = test: Antimicrobial activity against Plesiomonas after 18 to 20 hr by agar dilution method; type: functional
Shigella sonnei = test: Antimicrobial activity against Shigella sonnei after 18 to 20 hr by agar dilution method; type: functional
Klebsiella pneumoniae [3] = test: Antimicrobial activity against Klebsiella pneumoniae after 18 to 20 hr by agar dilution method; type: functional
Klebsiella pneumoniae [4] = test: Antimicrobial activity against Klebsiella pneumoniae subsp. ozaenae after 18 to 20 hr by agar dilution method; type: functional
[5] = system: Mycobacterium tuberculosis; test: Antimycobacterial activity against Mycobacterium tuberculosis H37Rv ATCC 27294 at 6.25 ug/ml by MABA; type: functional
[6] = Cytotoxicity against Homo sapiens (human) HuH7 cells assessed as cell growth at 50 ug/ml after 3 days by Neutral red assay; type: cell-based, Huh-7; conditions: read-out: Activity
[7] = Cytotoxicity against Homo sapiens (human) CEM cells after 5 days by MTT assay; type: cell-based; conditions: CEM cells (CCRF-CEM)
[8] = system: Human immunodeficiency virus 1; test: Antiviral activity against Human immunodeficiency virus 1 IIIB infected CEM cells assessed as protection against viral infection after 6 days by XTT assay; type: functional, CCRF-CEM; set-up: concentration or dose not given beside the values
[9] = system: Human immunodeficiency virus 1; test: Antiviral activity against Human immunodeficiency virus 1 IIIB infected CEM cells assessed as inhibition of virus-induced cytopathicity after 6 days by XTT assay; type: functional, organism-based; conditions: CCRF-CEM, 144 h
[10] = Cytotoxicity against Homo sapiens (human) MT4 cells after 5 days by MTT assay; type: cell-based
[11] = system: Human immunodeficiency virus 1; test: Antiviral activity against Human immunodeficiency virus 1 IIIB infected MT4 cells assessed as inhibition of virus-induced cytopathicity after 5 days by MTT assay; type: functional, organism-based; conditions: MT4, 120 h
Hepatitis C virus = test: Antiviral activity against Hepatitis C virus BM4-5 infected in Huh7 cells assessed as inhibition of viral RNA replication by phosphor screening method; type: functional, Hepacivirus hominis, Huh-7
[12] = system: Human immunodeficiency virus 1; test: Antiviral activity against Human immunodeficiency virus 1 IIIB infected MT4 cells assessed as protection against viral infection after 5 days by MTT assay; type: functional; set-up: concentration or dose not given beside the values

| SMILES | MIC (Vibrio cholerae [1]) [µg/mL] | MIC (Priestia megaterium) [µg/mL] | MIC (Enterobacter) [µg/mL] | MIC (Citrobacter freundii) [µg/mL] | MIC (Salmonella enteritidis) [µg/mL] | MIC (Salmonella typhimurium) [µg/mL] | MIC (Proteus mirabilis) [µg/mL] | MIC (Proteus vulgaris) [µg/mL] | MIC (Edwardsiella tarda) [µg/mL] | MIC (Escherichia coli) [µg/mL] | MIC (Salmonella typhi) [µg/mL] | MIC (Salmonella paratyphi) [µg/mL] | MIC (Vibrio parahaemolyticus) [µg/mL] | MIC (Vibrio cholerae [2]) [µg/mL] | MIC (Vibrio fluvialis) [µg/mL] | MIC (Vibrio mimicus) [µg/mL] | MIC (Pseudomonas aeruginosa) [µg/mL] | MIC (Staphylococcus aureus) [µg/mL] | MIC (Morganella morganii) [µg/mL] | MIC (Shigella boydii) [µg/mL] | also measured |
| --- | --- | --- | --- | --- | --- | --- | --- | --- | --- | --- | --- | --- | --- | --- | --- | --- | --- | --- | --- | --- | --- |
| COc1cc(Cc2cnc(/N=C3\C(=O)N(CN4CCN(c5ccc(Cl)cc5)CC4)c4ccc(Cl)cc43)nc2N)cc(OC)c1OC | 4.88 (≈ 7.37 µM) | 1250 (≈ 1890 µM) | 1250 (≈ 1890 µM) | 1250 (≈ 1890 µM) | 1250 (≈ 1890 µM) | 1250 (≈ 1890 µM) | 1250 (≈ 1890 µM) | 1250 (≈ 1890 µM) | 625 (≈ 943 µM) | 1250 (≈ 1890 µM) | 1250 (≈ 1890 µM) | 625 (≈ 943 µM) | 2.44 (≈ 3.68 µM) | 1250 (≈ 1890 µM) | 1250 (≈ 1890 µM) | 9.76 (≈ 14.7 µM) | 2500 (≈ 3770 µM) | 1250 (≈ 1890 µM) | 1250 (≈ 1890 µM) | 39.1 (≈ 59 µM) | MIC (Plesiomonas): 19.5 µg/mL (≈ 29.5 µM); MIC (Shigella sonnei): 1250 µg/mL (≈ 1890 µM); MIC (Klebsiella pneumoniae [3]): 1250 µg/mL (≈ 1890 µM); MIC (Klebsiella pneumoniae [4]): 1250 µg/mL (≈ 1890 µM); inhibition at 6.25 µg/mL [5]: 40%; viability at 72 h, 50 ug/ml [6]: 56%; CC50 at 120 h [7]: 40.1 µg/mL (≈ 60.5 µM); Activity [8]: 22.64%; EC50 [9]: > 40.1 µg/mL; CC50 at 120 h [10]: 38.6 µg/mL (≈ 58.3 µM); EC50 [11]: > 38.6 µg/mL; inhibition (INH) (Hepatitis C virus): 99%; Activity [12]: 32.6% |
| COc1cc(Cc2cnc(/N=C3\C(=O)N(CN4CCN(C(=O)c5ccc(F)cc5)CC4)c4ccc(Cl)cc43)nc2N)cc(OC)c1OC | 39.1 (≈ 57.9 µM) | 2500 (≈ 3710 µM) | 625 (≈ 927 µM) | 2500 (≈ 3710 µM) | 2500 (≈ 3710 µM) | 2500 (≈ 3710 µM) | 2500 (≈ 3710 µM) | 2500 (≈ 3710 µM) | 2500 (≈ 3710 µM) | 2500 (≈ 3710 µM) | 2500 (≈ 3710 µM) | 625 (≈ 927 µM) | 4.88 (≈ 7.24 µM) | 1250 (≈ 1850 µM) | 2500 (≈ 3710 µM) | 2.44 (≈ 3.62 µM) | 2500 (≈ 3710 µM) | 2500 (≈ 3710 µM) | 2500 (≈ 3710 µM) | 39.1 (≈ 57.9 µM) | MIC (Plesiomonas): 9.76 µg/mL (≈ 14.5 µM); MIC (Shigella sonnei): 2500 µg/mL (≈ 3710 µM); MIC (Klebsiella pneumoniae [3]): 2500 µg/mL (≈ 3710 µM); MIC (Klebsiella pneumoniae [4]): 2500 µg/mL (≈ 3710 µM); inhibition at 6.25 µg/mL [5]: 38%; viability at 72 h, 50 ug/ml [6]: 71%; CC50 at 120 h [7]: 51 µg/mL (≈ 75.7 µM); Activity [8]: 23.38%; EC50 [9]: > 51 µg/mL; CC50 at 120 h [10]: 60.6 µg/mL (≈ 89.9 µM); EC50 [11]: > 60.6 µg/mL; inhibition (INH) (Hepatitis C virus): 91%; Activity [12]: 30.2% |
| COc1cc(Cc2cnc(/N=C3\C(=O)N(CN4CCN(C)CC4)c4ccc(Cl)cc43)nc2N)cc(OC)c1OC | 1.22 (≈ 2.16 µM) | 1250 (≈ 2210 µM) | 312 (≈ 552 µM) | 1250 (≈ 2210 µM) | 1250 (≈ 2210 µM) | 1250 (≈ 2210 µM) | 1250 (≈ 2210 µM) | 1250 (≈ 2210 µM) | 625 (≈ 1100 µM) | 1250 (≈ 2210 µM) | 1250 (≈ 2210 µM) | 156 (≈ 276 µM) | 0.61 (≈ 1.08 µM) | 312 (≈ 552 µM) | 1250 (≈ 2210 µM) | 1.22 (≈ 2.16 µM) | 1250 (≈ 2210 µM) | 1250 (≈ 2210 µM) | 1250 (≈ 2210 µM) | 19.5 (≈ 34.5 µM) | MIC (Plesiomonas): 4.88 µg/mL (≈ 8.62 µM); MIC (Shigella sonnei): 1250 µg/mL (≈ 2210 µM); MIC (Klebsiella pneumoniae [3]): 1250 µg/mL (≈ 2210 µM); MIC (Klebsiella pneumoniae [4]): 1250 µg/mL (≈ 2210 µM); inhibition at 6.25 µg/mL [5]: 35%; viability at 72 h, 50 ug/ml [6]: 83%; CC50 at 120 h [7]: 88 µg/mL (≈ 155 µM); Activity [8]: 21.09%; EC50 [9]: > 88 µg/mL; CC50 at 120 h [10]: 80.7 µg/mL (≈ 143 µM); EC50 [11]: > 80.7 µg/mL; inhibition (INH) (Hepatitis C virus): 71%; Activity [12]: 48.6% |
| COc1cccc(N2CCN(CN3C(=O)/C(=N\c4ncc(Cc5cc(OC)c(OC)c(OC)c5)c(N)n4)c4cc(Cl)ccc43)CC2)c1 | 1.22 (≈ 1.85 µM) | 1250 (≈ 1900 µM) | 1250 (≈ 1900 µM) | 1250 (≈ 1900 µM) | 1250 (≈ 1900 µM) | 2500 (≈ 3800 µM) | 2500 (≈ 3800 µM) | 1250 (≈ 1900 µM) | 1250 (≈ 1900 µM) | 2500 (≈ 3800 µM) | 1250 (≈ 1900 µM) | 156 (≈ 237 µM) | 2.44 (≈ 3.71 µM) | 312 (≈ 475 µM) | 1250 (≈ 1900 µM) | 0.61 (≈ 0.927 µM) | 2500 (≈ 3800 µM) | 156 (≈ 237 µM) | 2500 (≈ 3800 µM) | 0.61 (≈ 0.927 µM) | MIC (Plesiomonas): 0.61 µg/mL (≈ 0.927 µM); MIC (Shigella sonnei): 625 µg/mL (≈ 950 µM); MIC (Klebsiella pneumoniae [3]): 625 µg/mL (≈ 950 µM); MIC (Klebsiella pneumoniae [4]): 1250 µg/mL (≈ 1900 µM); inhibition at 6.25 µg/mL [5]: 33%; viability at 72 h, 50 ug/ml [6]: 71%; CC50 at 120 h [7]: 23.3 µg/mL (≈ 35.4 µM); Activity [8]: 21.93%; EC50 [9]: > 23.3 µg/mL; CC50 at 120 h [10]: 32.6 µg/mL (≈ 49.5 µM); EC50 [11]: > 32.6 µg/mL; inhibition (INH) (Hepatitis C virus): 100%; Activity [12]: 10.7% |
